Legend:
human DGAT1 = target: T1, human DGAT1 (Homo sapiens, UniProt O75907); test: DGAT1 FlashPlate assay: inhibition of DGAT1 activity in membrane preparations; assay type: biochemical; conditions: IC50 values expressed in M
T1 construct: FLAG (N); made in house; host or cells: SF9 insect cells (pFastBac baculovirus); total cell membranes used
T1 sequence (O75907 1-488): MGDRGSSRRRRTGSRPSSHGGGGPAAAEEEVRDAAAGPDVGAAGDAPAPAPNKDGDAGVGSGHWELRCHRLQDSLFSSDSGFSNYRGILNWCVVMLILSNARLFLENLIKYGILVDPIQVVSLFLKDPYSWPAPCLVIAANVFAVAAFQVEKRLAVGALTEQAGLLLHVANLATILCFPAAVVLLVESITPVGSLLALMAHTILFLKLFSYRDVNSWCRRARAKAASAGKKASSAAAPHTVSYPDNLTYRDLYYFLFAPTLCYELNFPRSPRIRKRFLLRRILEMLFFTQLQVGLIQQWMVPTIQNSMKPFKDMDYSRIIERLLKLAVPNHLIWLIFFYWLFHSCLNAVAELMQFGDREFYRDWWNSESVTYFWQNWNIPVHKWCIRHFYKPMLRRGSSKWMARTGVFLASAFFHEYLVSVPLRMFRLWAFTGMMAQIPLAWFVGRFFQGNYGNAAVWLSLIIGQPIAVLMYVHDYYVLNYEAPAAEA
Source text: The inhibiting activity of the present compounds on DGAT1 activity was screened in a single well procedure assay using DGAT1 comprising membrane preparations and DGAT1 substrate comprising micelles and determining formed radio-active triacylglycerol coming in close proximity of a flashplate surface by radio luminescence.
Said assay is described in full detail in WO2006/067071, the content of which is incorporated herein by reference.
By DGAT1 activity is meant the transfer of coenzyme A activated fatty acids to the 3-position of 1,2-diacylglycerols, thus forming a triglyceride molecule, by enzyme DGAT1.
human DGAT1 (NM012079.2) was cloned into the pFastBac vector, containing translation start, a FLAG-tag at the N-terminus as described in literature and a viral Kozak sequence (AAX) preceding the ATG to improve expression in insect cells. Expression was done as described in literature (Cases, S., Smith, S. J., Zheng, Y., Myers H. M., Lear, S. R., Sande, E., Novak, S., Collins, C., Welch, C. B., Lusis, A. J., Erickson, S. K. and Farese, R. V. (1998) Proc. Natl. Acad. Sci. USA 95, 13018-13023.) using SF9 cells.
72 h transfected SF9 cells were collected by centrifugation (13000 rpm-15 min-4° C.) and lysed in 2×500 ml lysisbuffer (0.1M Sucrose, 50 mM KCl, 40 mM KH2PO4, 30 mM EDTA pH 7.2. Cells were homogenized by cell disruptor. After centrifugation 1380 rpm-15 min-4° C. (SN discarded), pellet was resuspended in 500 ml lysisbuffer and total cell membranes collected by ultracentrifugation at 34000 rpm (100 000 g) for 60 min (4° C.). The collected membranes were resuspended in lysis buffer, divided in aliquots and stored with 10% glycerol at −80° C. until use.
Add 1 ml dioleoyl-sn-glycerol (10 mg/ml) to 10 ml of L-α-phosphatidylcholine (1 mg/ml) and 10 ml of L-α-phosphatidyl-L-serine (1 mg/ml) in a thick glass recipient. Evaporate under nitrogen and put on ice for 15 minutes. Reconstitute in 10 ml Tris/HCl (10 mM, pH 7.4) by sonication on ice. The sonification process consists of sonification cycles of 10 seconds in the sonification bath followed by 10 seconds cool down on ice and repeating this sonification cycle till a homogeneous solution is obtained (takes about 15 minutes). The thus obtained micelles are stored at −20° C. till later use and contain DAG at a final concentration of 1.61 mM.
• a) Assaybuffer • 50 mM Tris-HCl (pH 7.4), 150 mM MgCl2, 1 mM EDTA, 0.2% BSA. • b) N-ethylmaleimide, 5M • Dissolve 5 g into a final volume of 8 ml DMSO 100% and store at −20° C. in aliquots till later use. • c) Substrate mix (for 1 384 well plate=3840 μl) • 612 μl micelles stock (51 μM final) • 16.6 μl oleoylCoA 9.7 mM • 23 μl [^3H]-oleoylCoA (49 Ci/mmol, 500 μCi/ml) 3188.4 μl Tris pH 7.4, 10 mM • d) Enzyme mix (for 1 384 well plate=3520 μl) (5 μg/ml) • Add 11.73 μl of DGAT membrane stock (1500 μg/ml stock) to 3508 μl assay buffer. • e) Stop mix (for 1 384 well plate=7.68 ml) (250 mM) • Add 384 μl of N-ethylmaleimide (5M) to 3.456 ml DMSO 100%, and further dilute 3.84 ml of said solution with 3.84 ml DMSO 10%. Method
DGAT activity in membrane preparations was assayed in 50 mM Tris-HCl (pH 7.4), 150 mM MgCl2, 1 mM EDTA and 0.2% BSA, containing 50 μM DAG, […] PC/PS and 8.4 μM [^3H]-oleoylCoA (at a specific activity of 30 nCi/well) in a final volume of 50 μl in 384-well format using the red shifted Basic Image FlashPlate™ (Perkin Elmer Cat. No. SMP400).
In detail, 10 μl enzyme mix and 10 μl substrate mix were added to 30 μl of assay buffer, optionally in the presence of 1 μl DMSO (blank and controls) or 1 μl of the compound to be tested. This reaction mixture was incubated for 120 minutes at 37° C. and the enzymatic reaction stopped by adding 20 μl of the stop mix. The plates were sealed and the vesicles allowed to settle overnight at room temperature. Plates were centrifuged for 5 minutes at 1500 rpm and measured in Leadseeker. […]

Compound | IC50 (human DGAT1) [nM] | melting point [°C] | pIC50 (mean) (human DGAT1)
N#C/N=C(/Nc1c(Cl)cccc1Cl)N1CCN(c2ccc(NC(=O)CCCc3ccccc3)cc2)CC1 [Compound 1] | 9.12 |  | 
N#C/N=C(\Oc1ccccc1)N1CCN(c2ccc(NC(=O)CCCc3ccccc3)cc2)CC1 [Compound 2] | 1820 |  | 
N#C/N=C(/Nc1ccccc1Cl)N1CCN(c2ccc(NC(=O)CCCc3ccccc3)cc2)CC1 [Compound 3] | 33.9 |  | 
Cc1ccccc1N/C(=N/C#N)N1CCN(c2ccc(NC(=O)CCCc3ccccc3)cc2)CC1 [Compound 4] | 36.3 |  | 
N#C/N=C(/Nc1ccccc1)N1CCN(c2ccc(NC(=O)CCCc3ccccc3)cc2)CC1 [Compound 5] | 1350 |  | 
Cc1ccccc1-c1cccc(C(=O)Nc2ccc(N3CCN(/C(=N\C#N)Nc4c(Cl)cc(CN5CCCC5)cc4Cl)CC3)cc2)c1 [Compound 6] | 2.4 | 217.1 | 
CN1CCN(C(=O)c2cc(Cl)c(N/C(=N/C#N)N3CCN(c4ccc(NC(=O)c5cccc(N6CCCC6)c5)cc4)CC3)c(Cl)c2)CC1 [Compound 7] | 5.25 |  | 
COc1ccc(CC(=O)Nc2ccc(N3CCN(/C(=N\C#N)Nc4c(C)cccc4Cl)CC3)cc2)cc1 [Compound 8] |  | 206.9 | 8.23
COC(=O)c1ccc(N/C(=N/C#N)N2CCN(c3ccc(NC(=O)c4cccc(N5CCCC5)c4)cc3)CC2)c(Cl)c1 [Compound 9] | 6.31 | 220.3 | 
COCCN1CCN(C(=O)c2cc(Cl)c(N/C(=N/C#N)N3CCN(c4ccc(NC(=O)Cc5ccc(OC)cc5)cc4)CC3)c(Cl)c2)CC1 [Compound 10] |  | 205.3 | 8.17
COc1ccc(CC(=O)Nc2ccc(N3CCN(/C(=N\C#N)Nc4c(Cl)cc(CN5CCCC5)cc4Cl)CC3)cc2)cc1 [Compound 11] |  | 222.4 | 8.16
Cc1cc(C)n(-c2cccc(C(=O)Nc3ccc(N4CCN(/C(=N\C#N)Nc5c(Cl)cc(CN6CCCC6)cc5Cl)CC4)cc3)c2)n1 [Compound 12] |  |  | 7.84
N#C/N=C(/Nc1ccc(C(=O)O)cc1Cl)N1CCN(c2ccc(NC(=O)CCCc3ccccc3)cc2)CC1 [Compound 13] |  | 208.7 | 7.58
CCCCCCC(=O)Nc1ccc(N2CCN(/C(=N\C#N)Nc3ccc(C(=O)OC)cc3Cl)CC2)cc1 [Compound 14] |  | 191.8 | 7.24
COCCN1CCN(C(=O)c2cc(Cl)c(N/C(=N/C#N)N3CCN(c4ccc(NC(=O)CNc5ccccc5)cc4)CC3)c(Cl)c2)CC1 [Compound 15] |  | 211.9 | 7.20
CC(=O)OCC(=O)Nc1ccc(N2CCN(/C(=N\C#N)Nc3c(F)cccc3Cl)CC2)cc1 [Compound 16] |  | 209 | 6.79
Cc1cccc(Cl)c1N/C(=N/C#N)N1CCN(c2ccc(NC(=O)c3ccc(N4CCN(C)CC4)cc3)cc2)CC1 [Compound 17] |  | 285.1 | 6.64
CN1CCN(c2ccc(C(=O)Nc3ccc(N4CCN(/C(=N\C#N)Nc5ccccc5Cl)CC4)cc3)cc2)CC1 [Compound 18] |  | 244.2 | 6.10
COCCN1CCN(C(=O)c2cc(Cl)c(N/C(=N/C#N)N3CCN(c4ccc(NC(=O)c5ccccc5N5CCN(C)CC5)cc4)CC3)c(Cl)c2)CC1 [Compound 19] |  | 254.2 | 5.54
